Holding throughout (format): binding
For one assay, the target named is T1, FGF-R4 ECD (Homo sapiens, UniProt P22455).
T1 construct: DNA constructs for the extracellular domain (ECD) of human FGF-; HPC4 (C); made in house; host or cells: HEK 293-6E
T1 sequence (P22455 22-369 limits assumed): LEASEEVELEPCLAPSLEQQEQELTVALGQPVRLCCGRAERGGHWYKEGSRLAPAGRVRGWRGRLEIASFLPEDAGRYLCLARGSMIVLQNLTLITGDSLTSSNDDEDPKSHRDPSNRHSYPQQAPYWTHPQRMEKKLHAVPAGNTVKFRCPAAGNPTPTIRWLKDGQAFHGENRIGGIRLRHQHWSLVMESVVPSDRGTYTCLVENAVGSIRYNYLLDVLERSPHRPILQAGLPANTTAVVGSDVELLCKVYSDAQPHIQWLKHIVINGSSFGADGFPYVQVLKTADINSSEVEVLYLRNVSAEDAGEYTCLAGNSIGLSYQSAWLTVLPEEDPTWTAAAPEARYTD
The experiment in a line: single concentration BLI of crude peptides. Particulars: read-out: KD (4). The method in brief: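 Streptavidin biosensors carrying biotinylated FGF receptor ECD were immersed in peptide (~1 μM for crude single-point runs, a concentration series for purified peptides) and then in peptide-free buffer. KD was obtained by fitting the BLI association and dissociation curves.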

The next assay addresses T2, FGF-R1C ECD (Homo sapiens, UniProt P11362).
T2 sequence (P11362 22-376 limits assumed): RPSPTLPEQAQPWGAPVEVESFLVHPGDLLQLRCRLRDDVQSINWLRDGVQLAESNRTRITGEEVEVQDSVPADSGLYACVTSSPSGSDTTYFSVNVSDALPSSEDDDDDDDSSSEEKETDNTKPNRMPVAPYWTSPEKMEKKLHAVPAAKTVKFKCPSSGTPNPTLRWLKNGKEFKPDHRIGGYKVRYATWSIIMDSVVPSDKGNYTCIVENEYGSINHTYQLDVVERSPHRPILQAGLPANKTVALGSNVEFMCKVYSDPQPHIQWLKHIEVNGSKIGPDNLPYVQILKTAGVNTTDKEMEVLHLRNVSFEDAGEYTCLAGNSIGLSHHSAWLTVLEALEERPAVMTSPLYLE
The assay can be described thus: biochemical. Further details: DNA constructs for the extracellular domain (ECD) of human FGF-; HPC4 (C); made in house; host or cells: HEK 293-6E. The method in brief:
(§1)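 Biolayer interferometry with biotinylated FGF-R ECD on streptavidin biosensors in PBS pH 7.4, 0.05% Tween-20, 0.01% BSA. Multi-concentration: purified peptide dilution series fitted to a multi-point KD model.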

The target of a further assay is T3, FGF-R3C ECD (Homo sapiens, UniProt P22607).
T3 sequence (P22607 23-375 limits assumed): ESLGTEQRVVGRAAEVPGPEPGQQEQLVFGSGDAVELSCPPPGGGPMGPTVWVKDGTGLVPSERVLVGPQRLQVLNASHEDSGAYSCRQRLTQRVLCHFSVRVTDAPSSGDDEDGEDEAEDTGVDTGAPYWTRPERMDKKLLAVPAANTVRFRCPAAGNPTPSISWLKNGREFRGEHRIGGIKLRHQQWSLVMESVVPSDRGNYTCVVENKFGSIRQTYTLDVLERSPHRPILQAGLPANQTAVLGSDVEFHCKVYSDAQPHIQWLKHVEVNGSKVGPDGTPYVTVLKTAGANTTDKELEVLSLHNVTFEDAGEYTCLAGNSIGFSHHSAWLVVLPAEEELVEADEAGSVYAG
The assay can be described thus: biochemical. Further details: DNA constructs for the extracellular domain (ECD) of human FGF-; HPC4 (C); made in house; host or cells: HEK 293-6E. The method in brief:
as §1

[1] abbreviates: crude T18 selection 1 (1:1:1) peptides, single concentration BLI (Table S4).
[2] abbreviates: crude NNK peptides, single concentration BLI (Table S3).

Read-outs that look alike come from different tables or passages of the source. Positions of bridges follow the written chain, without caps; N, C: chain ends. Residues, ends and D or L forms follow the SMILES beside them. A value given as a limit tells only on which side of the number the result lay.

This note sets out measurements from publication PMC10763615, “Identification and engineering of potent cyclic peptides with selective or promiscuous binding through biochemical profiling and bioinformatic data analysis” (RSC Chemical Biology, 2023).

Broadly, the Kd is the free concentration of one partner at which half of the binding sites on the other are occupied at equilibrium, for simple one-to-one binding. Take `CSCC[C@H](NC(C)=O)C(=O)N[C@H]1CSSC[C@@H](C(=O)NCC(=O)N[C@@H](CO)C(=O)NCC(=O)N[C@@H](CO)C(=O)N[C@@H](CC(=O)O)C(=O)N[C@@H](Cc2ccc(O)cc2)C(=O)N[C@@H](CCCCN)C(=O)N[C@@H](CC(=O)O)C(=O)N[C@@H](CC(=O)O)C(=O)N[C@@H](CC(=O)O)C(=O)N[C@@H](CC(=O)O)C(=O)N[C@@H](CCCCN)C(N)=O)NC(=O)[C@@H]2CCCN2C(=O)[C@H](CCC(N)=O)NC(=O)[C@H](Cc2c[nH]c3ccccc23)NC(=O)[C@H](CCC(=O)O)NC(=O)[C@H](CCC(=O)O)NC(=O)[C@H]([C@@H](C)O)NC(=O)[C@H](Cc2c[nH]c3ccccc23)NC(=O)[C@H](Cc2ccccc2)NC(=O)[C@H](CCCNC(=N)N)NC(=O)[C@H]([C@@H](C)O)NC(=O)[C@H](Cc2ccc(O)cc2)NC1=O` (Ac-MCYTRFWTEEWQPCGSGSDYKDDDDK-NH2; disulfide 2-14): the Kd at FGF-R4 ECD (setting [1]), at FGF-R1C ECD and at FGF-R3C ECD was over 10 µM in each case.
As to `CSCC[C@H](NC(C)=O)C(=O)N[C@H]1CSSC[C@@H](C(=O)NCC(=O)N[C@@H](CO)C(=O)NCC(=O)N[C@@H](CO)C(=O)N[C@@H](CC(=O)O)C(=O)N[C@@H](Cc2ccc(O)cc2)C(=O)N[C@@H](CCCCN)C(=O)N[C@@H](CC(=O)O)C(=O)N[C@@H](CC(=O)O)C(=O)N[C@@H](CC(=O)O)C(=O)N[C@@H](CC(=O)O)C(=O)N[C@@H](CCCCN)C(N)=O)NC(=O)[C@H](Cc2ccc(O)cc2)NC(=O)[C@H](C(C)C)NC(=O)[C@H](Cc2ccccc2)NC(=O)[C@H](C(C)C)NC(=O)[C@H](CCCCN)NC(=O)[C@H]([C@@H](C)O)NC(=O)[C@H](CCCCN)NC(=O)[C@H](Cc2c[nH]cn2)NC(=O)[C@H](CC(=O)O)NC(=O)[C@H](CC(C)C)NC(=O)[C@H](Cc2ccccc2)NC1=O` (Ac-MCFLDHKTKVFVYCGSGSDYKDDDDK-NH2; disulfide 2-14), the Kd at FGF-R4 ECD (setting [1]) is 0.13 µM; at FGF-R1C ECD it was over 10 µM; at FGF-R3C ECD it was over 10 µM.
On to `CSCC[C@H](NC(C)=O)C(=O)N[C@H]1CSSC[C@@H](C(=O)NCC(=O)N[C@@H](CO)C(=O)NCC(=O)N[C@@H](CO)C(=O)N[C@@H](CC(=O)O)C(=O)N[C@@H](Cc2ccc(O)cc2)C(=O)N[C@@H](CCCCN)C(=O)N[C@@H](CC(=O)O)C(=O)N[C@@H](CC(=O)O)C(=O)N[C@@H](CC(=O)O)C(=O)N[C@@H](CC(=O)O)C(=O)N[C@@H](CCCCN)C(N)=O)NC(=O)[C@H](Cc2c[nH]c3ccccc23)NC(=O)[C@H](CCC(N)=O)NC(=O)[C@H](CCCCN)NC(=O)[C@H](Cc2c[nH]c3ccccc23)NC(=O)[C@H](CC(C)C)NC(=O)[C@H](CC(C)C)NC(=O)[C@H](Cc2ccccc2)NC(=O)[C@H](CC(C)C)NC(=O)[C@H](CCCCN)NC(=O)[C@H](Cc2ccc(O)cc2)NC1=O` (Ac-MCYKLFLLWKQWCGSGSDYKDDDDK-NH2; disulfide 2-13), for which the Kd on FGF-R4 ECD (setting [2]), at FGF-R1C ECD and on FGF-R3C ECD was over 10 µM in each case.
In the case of `CSCC[C@H](NC(C)=O)C(=O)N[C@H]1CSSC[C@@H](C(=O)NCC(=O)N[C@@H](CO)C(=O)NCC(=O)N[C@@H](CO)C(=O)N[C@@H](CC(=O)O)C(=O)N[C@@H](Cc2ccc(O)cc2)C(=O)N[C@@H](CCCCN)C(=O)N[C@@H](CC(=O)O)C(=O)N[C@@H](CC(=O)O)C(=O)N[C@@H](CC(=O)O)C(=O)N[C@@H](CC(=O)O)C(=O)N[C@@H](CCCCN)C(N)=O)NC(=O)[C@H](CCC(N)=O)NC(=O)[C@H](CCCNC(=N)N)NC(=O)[C@H](CCCCN)NC(=O)[C@H](C(C)C)NC(=O)[C@H](CC(C)C)NC(=O)[C@H](CC(C)C)NC(=O)[C@H](Cc2ccc(O)cc2)NC(=O)[C@H](Cc2ccc(O)cc2)NC(=O)[C@H](Cc2ccccc2)NC(=O)[C@H](CC(C)C)NC(=O)[C@H](Cc2c[nH]cn2)NC(=O)[C@H](CCC(=O)O)NC1=O` (Ac-MCEHLFYYLLVKRQCGSGSDYKDDDDK-NH2; disulfide 2-15), the Kd at FGF-R4 ECD (setting [1]) is 0.001 µM; at FGF-R1C ECD it was over 10 µM; on FGF-R3C ECD, over 10 µM.
For the molecule `CSCC[C@H](N)C(=O)N[C@H]1CSSC[C@@H](C(=O)NCC(=O)N[C@@H](CO)C(=O)NCC(=O)N[C@@H](CO)C(=O)N[C@@H](CC(=O)O)C(=O)N[C@@H](Cc2ccc(O)cc2)C(=O)N[C@@H](CCCCN)C(=O)N[C@@H](CC(=O)O)C(=O)N[C@@H](CC(=O)O)C(=O)N[C@@H](CC(=O)O)C(=O)N[C@@H](CC(=O)O)C(=O)N[C@@H](CCCCN)C(N)=O)NC(=O)[C@H](Cc2ccc(O)cc2)NC(=O)[C@H](C(C)C)NC(=O)[C@H](Cc2ccccc2)NC(=O)[C@@H]2CCCN2C(=O)[C@H](CC(C)C)NC(=O)[C@H](Cc2c[nH]c3ccccc23)NC(=O)[C@H](CO)NC(=O)[C@H](CC(=O)O)NC(=O)[C@H](Cc2ccccc2)NC(=O)[C@H](C(C)C)NC1=O` (H-MCVFDSWLPFVYCGSGSDYKDDDDK-NH2; disulfide 2-13), the values for the Kd at FGF-R4 ECD (setting [2]), on FGF-R1C ECD and at FGF-R3C ECD were over 10 µM, over 10 µM and 0.618 µM, respectively.
`CSCC[C@H](NC(C)=O)C(=O)N[C@H]1CSSC[C@@H](C(=O)NCC(=O)N[C@@H](CO)C(=O)NCC(=O)N[C@@H](CO)C(=O)N[C@@H](CC(=O)O)C(=O)N[C@@H](Cc2ccc(O)cc2)C(=O)N[C@@H](CCCCN)C(=O)N[C@@H](CC(=O)O)C(=O)N[C@@H](CC(=O)O)C(=O)N[C@@H](CC(=O)O)C(=O)N[C@@H](CC(=O)O)C(=O)N[C@@H](CCCCN)C(N)=O)NC(=O)[C@H](Cc2ccc(O)cc2)NC(=O)[C@H](C(C)C)NC(=O)[C@H](Cc2ccc(O)cc2)NC(=O)[C@H](Cc2c[nH]c3ccccc23)NC(=O)[C@H](CO)NC(=O)[C@H](CCCCN)NC(=O)[C@H](Cc2c[nH]cn2)NC(=O)[C@H](Cc2ccc(O)cc2)NC(=O)[C@H](Cc2ccc(O)cc2)NC(=O)[C@H](Cc2ccccc2)NC(=O)[C@H](Cc2c[nH]c3ccccc23)NC(=O)[C@H](CCC(=O)O)NC1=O` (Ac-MCEWFYYHKSWYVYCGSGSDYKDDDDK-NH2; disulfide 2-15): the Kd on FGF-R4 ECD (setting [1]) is over 10 µM; on FGF-R1C ECD, 0.191 µM; on FGF-R3C ECD, over 10 µM.
For `CSCC[C@H](NC(C)=O)C(=O)N[C@H]1CSSC[C@@H](C(=O)NCC(=O)N[C@@H](CO)C(=O)NCC(=O)N[C@@H](CO)C(=O)N[C@@H](CC(=O)O)C(=O)N[C@@H](Cc2ccc(O)cc2)C(=O)N[C@@H](CCCCN)C(=O)N[C@@H](CC(=O)O)C(=O)N[C@@H](CC(=O)O)C(=O)N[C@@H](CC(=O)O)C(=O)N[C@@H](CC(=O)O)C(=O)N[C@@H](CCCCN)C(N)=O)NC(=O)[C@H](CC(=O)O)NC(=O)[C@H](CCCNC(=N)N)NC(=O)[C@H](Cc2c[nH]c3ccccc23)NC(=O)[C@H](CC(=O)O)NC(=O)[C@H](Cc2c[nH]cn2)NC(=O)[C@H](Cc2c[nH]c3ccccc23)NC(=O)[C@H](CC(=O)O)NC(=O)[C@H](Cc2ccc(O)cc2)NC(=O)[C@H](Cc2ccc(O)cc2)NC(=O)[C@H](CC(=O)O)NC(=O)[C@H](Cc2ccc(O)cc2)NC(=O)[C@@H]2CCCN2C1=O` (Ac-MCPYDYYDWHDWRDCGSGSDYKDDDDK-NH2; disulfide 2-15), the Kd at FGF-R4 ECD (setting [1]) was 1.59 µM; at FGF-R1C ECD, over 10 µM; on FGF-R3C ECD it was over 10 µM.
